Reference: patent US12077503B2, “Substituted cyclic amides and their use as herbicides” (FMC CORPORATION, priority 2015, dated 2024)

How the values were obtained:
Format in all cases: in vivo
[1] = system: sedge, umbrella (small-flower umbrella sedge, Cyperus difformis); test: Test B flooded paddy test; settings: Flood, 0 to 100 scale where 0 is no effect and 100 is complete control, 13 to 15 d
Outline: (§1)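 Evaluation by eye, against controls, occurred 13–15 d post-treatment in a greenhouse, using a 0 (no effect) to 100 (complete control) scale. Application was into the paddy water, 3 cm deep over the soil, on 2-leaf plants.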

rice (Oryra sativa) = test: Test B flooded paddy test; settings: Flood, 0 to 100 scale where 0 is no effect and 100 is complete control, 13 to 15 d
Outline: as §1

[2] = system: barnyardgrass (Echinochloa crus-galli); test: Test B flooded paddy test; settings: Flood, 0 to 100 scale where 0 is no effect and 100 is complete control, 13 to 15 d
Outline: as §1

[3] = system: ducksalad (Heteranthera limosa); test: Test B flooded paddy test; settings: Flood, 0 to 100 scale where 0 is no effect and 100 is complete control, 13 to 15 d
Outline: as §1

[4] = system: ryegrass, Italian (Italian ryegrass, Lolium multiflorum); test: Test A preemergence
Outline: (§2)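 Seeds sprayed preemergence with a directed soil spray, or plants at 2 to 10 cm height and one- to two-leaf stage sprayed postemergence, with test chemicals in a non-phytotoxic solvent mixture containing surfactant, in loam soil–sand blend. Injury rated visually against untreated controls after about 10 d in greenhouse, 0 (no effect) to 100 (complete control).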

Kochia (Kochia scoparia) [5] = test: Test A preemergence
Outline: as §2

[6] = system: barnyardgrass (Echinochloa crus-galli); test: Test A preemergence
Outline: as §2

[7] = system: ragweed (common ragweed, Ambrosia elatior); test: Test A preemergence
Outline: as §2

[8] = system: giant foxtail (Setaria faberii); test: Test A preemergence
Outline: as §2

[9] = system: pigweed (Amaranthus retroflexus); test: Test A preemergence
corn (Zea mays) = test: Test A postemergence; settings: postemergence
Outline: as §2

[10] = system: ryegrass, Italian (Italian ryegrass, Lolium multiflorum); test: Test A postemergence
Outline: as §2

[11] = system: wheat (Triticum aestivum); test: Test A postemergence
Outline: as §2

[12] = system: blackgrass (Alopecurus myosuroides); test: Test A postemergence; settings: postemergence
Outline: as §2

Kochia (Kochia scoparia) [13] = test: Test A postemergence
Outline: as §2

[14] = system: barnyardgrass (Echinochloa crus-galli); test: Test A postemergence; settings: postemergence
Outline: as §2

[15] = system: ragweed (common ragweed, Ambrosia elatior); test: Test A postemergence
Outline: as §2

[16] = system: Galium (catchweed bedstraw, Galium aparine); test: Test A postemergence
Outline: as §2

[17] = system: giant foxtail (Setaria faberii); test: Test A postemergence
Outline: as §2

[18] = system: pigweed (Amaranthus retroflexus); test: Test A postemergence
Outline: as §2

[19] = 125 g ai/ha, Preemergence, visual injury after approximately 10 d, 0 to 100 scale where 0 is no effect and 100 is complete control
[20] = Preemergence, 500 g ai/ha, visual injury approx. 10 d
[21] = 125 g ai/ha, preemergence, 0 to 100 scale (0 no effect, 100 complete control)
[22] = 125 g ai/ha, visual injury rating on 0 to 100 scale (0 no effect, 100 complete control), approx. 10 d
[23] = 500 g ai/ha, 0 to 100 scale, 0 no effect, 100 complete control
[24] = 125 g ai/ha, postemergence, visual injury rating on 0 to 100 scale (0 no effect, 100 complete control), approx. 10 d
[25] = Postemergence, 500 g ai/ha, 0 to 100 scale where 0 is no effect and 100 is complete control
[26] = 500 g ai/ha, preemergence, 0 to 100 scale, 0 = no effect, 100 = complete control
[27] = 125 g ai/ha, visual rating after approx. 10 d, 0 to 100 scale (0 no effect, 100 complete control)
[28] = 500 g ai/ha, visual injury, 0 to 100 scale (0 no effect, 100 complete control), approx. 10 d
[29] = 125 g ai/ha, postemergence, visual rating after approx. 10 d, 0 to 100 scale (0 no effect, 100 complete control)
[30] = 500 g ai/ha, postemergence, visual injury, 0 to 100 scale (0 no effect, 100 complete control), approx. 10 d

Compound: CCc1ccc(C2CNC(=O)C2C(=O)Nc2ccccc2S(C)(=O)=O)cc1 (stereo not drawn) [Compound 468]
- Plant response rating, Sedge, Umbrella ([1]; 250 g ai/ha): 0
- Plant response rating, Rice (rice (Oryra sativa); 250 g ai/ha): 0
- Plant response rating, Barnyardgrass ([2]; 250 g ai/ha): 35
- Plant response rating, Ducksalad ([3]; 250 g ai/ha): 85
- Plant response rating, Ryegrass, Italian [4, 19]: 0
- Ryegrass, Italian plant response rating (0 to 100 scale, 0 is no effect, 100 is complete control) [4, 20]: 0
- Plant response rating, Kochia (Kochia (Kochia scoparia) [5]; [21]): 40
- Kochia plant response rating (0 to 100 scale, 0 is no effect, 100 is complete control) (Kochia (Kochia scoparia) [5]; [20]): 80
- Plant response rating, Barnyardgrass [6, 21]: 0
- Barnyardgrass plant response rating (0 to 100 scale, 0 is no effect, 100 is complete control) [6, 20]: 20
- Plant response rating, Ragweed [7, 19]: 0
- Ragweed plant response rating (0 to 100 scale, 0 is no effect, 100 is complete control) [7, 20]: 70
- Plant response rating, Foxtail, Giant [8, 21]: 0
- Foxtail, Giant plant response rating (0 to 100 scale, 0 is no effect, 100 is complete control) [8, 20]: 80
- Plant response rating, Pigweed [9, 19]: 0
- Pigweed plant response rating (0 to 100 scale, 0 is no effect, 100 is complete control) [9, 20]: 50
- Corn plant response rating (corn (Zea mays); [22]): 0
- Plant response rating, Corn (corn (Zea mays); [23]): 0
- Ryegrass, Italian plant response rating [10, 24]: 0
- Plant response rating, Ryegrass, Italian [10, 25]: 0
- Wheat plant response rating [11, 24]: 0
- Plant response rating, Wheat [11, 25]: 20
- Blackgrass plant response rating [12, 22]: 0
- Plant response rating, Blackgrass [12, 23]: 20
- Kochia plant response rating (Kochia (Kochia scoparia) [13]; [24]): 0
- Plant response rating, Kochia (Kochia (Kochia scoparia) [13]; [25]): 20
- Barnyardgrass plant response rating [14, 22]: 0
- Plant response rating, Barnyardgrass [14, 23]: 30
- Ragweed plant response rating [15, 24]: 0
- Plant response rating, Ragweed [15, 25]: 0
- Galium plant response rating [16, 24]: 20
- Plant response rating, Galium [16, 25]: 30
- Foxtail, Giant plant response rating [17, 24]: 0
- Plant response rating, Foxtail, Giant [17, 25]: 0
- Pigweed plant response rating [18, 24]: 0
- Plant response rating, Pigweed [18, 25]: 0

Compound: O=C1NCC(c2cccc(C(F)(F)F)c2)C1C(=O)Nc1ccc(Cl)cc1F (racemic) [Compound 675]
- Plant response rating, Sedge, Umbrella ([1]; 500 g ai/ha): 0
- Plant response rating, Rice (rice (Oryra sativa); 500 g ai/ha): 15
- Plant response rating, Barnyardgrass ([2]; 500 g ai/ha): 60
- Plant response rating, Ducksalad ([3]; 500 g ai/ha): 75
- Plant response rating, Ryegrass, Italian [4, 19]: 0
- Plant response rating, Ryegrass, Italian [4, 26]: 20
- Plant response rating, Kochia (Kochia (Kochia scoparia) [5]; [19]): 0
- Plant response rating, Kochia (Kochia (Kochia scoparia) [5]; [26]): 0
- Plant response rating, Barnyardgrass [6, 19]: 70
- Plant response rating, Barnyardgrass [6, 26]: 80
- Plant response rating, Ragweed [7, 19]: 0
- Plant response rating, Ragweed [7, 26]: 0
- Plant response rating, Foxtail, Giant [8, 19]: 70
- Plant response rating, Foxtail, Giant [8, 26]: 90
- Plant response rating, Pigweed [9, 19]: 0
- Plant response rating, Pigweed [9, 26]: 0
- Plant response rating, Corn (corn (Zea mays); [27]): 0
- Plant response rating, Corn (corn (Zea mays); [28]): 0
- Plant response rating, Ryegrass, Italian [10, 29]: 0
- Plant response rating, Ryegrass, Italian [10, 30]: 0
- Plant response rating, Wheat [11, 29]: 0
- Plant response rating, Wheat [11, 30]: 0
- Plant response rating, Blackgrass [12, 27]: 0
- Plant response rating, Blackgrass [12, 28]: 20
- Plant response rating, Kochia (Kochia (Kochia scoparia) [13]; [29]): 0
- Plant response rating, Kochia (Kochia (Kochia scoparia) [13]; [30]): 0
- Plant response rating, Barnyardgrass [14, 27]: 40
- Plant response rating, Barnyardgrass [14, 28]: 70
- Plant response rating, Ragweed [15, 29]: 0
- Plant response rating, Ragweed [15, 30]: 0
- Plant response rating, Galium [16, 29]: 0
- Plant response rating, Galium [16, 30]: 0
- Plant response rating, Foxtail, Giant [17, 29]: 50
- Plant response rating, Foxtail, Giant [17, 30]: 80
- Plant response rating, Pigweed [18, 29]: 0
- Plant response rating, Pigweed [18, 30]: 0
